The record followed here is patent US20050260158A1, “Human stem cell materials and methods” (priority 2003, published 2005).

What all share (assay type): cell-based, human
The subject of assay [1] is MDSC cultures. As to the kind of experiment: LPS-induced macrophage differentiation of MDSC cultures. Conditions: 1 μg/ml LPS; 12-14-day-old M-CSF-treated cultures with 80-90% MDSCs. From the text:
This transformation was verified by characterization of morphology, lipid staining, increased HLA-DR, HLA-DQ, IL-10 and TNF-α immunostaining (FIG. 3), and cytotoxicity (Table 1).

Assay [2] relates to MDSC cultures. As to the kind of experiment: Pancreatic islet β-cell-like  differentiation of MDSC cultures, immunostaining for β-cell markers. The following applies: high glucose, absence of serum. As to the method:
Cells. MDSCs cultured in 8-well Lab-Tek chamber slides (Nunc, Naperville, Ill.)) were treated for 3-5 days with 1 mg/ml LPS (Sigma) or […] CD40Ab (R&D System, Minneapolis, Minn.)) in the presence of low (5 mM) or high (25 mM) glucose (Sigma). Human pancreatic islets were digested as described in Ricordi, C., et al., Diabetes 38 Suppl 1, 140-142 (1989) and purified on COBE 2991 (Mediatech, Herndon, Va.) using a continuous Ficoll gradient. Immunostaining. Tissue slides (Biochain, Hayward, Calif.) were immunostained after deparaffinization with AutoDewaxer (Phoenix Biotechnologies, Huntsville, Ala.). The secondary antibodies were peroxidase-, FITC-, or Texas Red® dye-conjugated affiniPure anti-mouse, donkey, goat or Guinea pig antibodies (Jackson ImmunoResearch Laboratories, West Grove, Pa.). […] Isotype-matched antibodies served as controls. Human macrophages served as positive controls. […] Immunostaining for the different antigens and insulin immuno-quantification was done as previously described (Zhao, Y., et al., Proc. Natl. Acad. Sci. USA, 100: 2426-2431 (2003). Non-specific esterase staining was performed using a-Naphthyl Acetate Esterase kit (Sigma).

Assay [3] has as its system MDSC cultures. As to the kind of experiment: Transmission electron microscopy of treated MDSC cultures. The following applies: treated MDSC cultures in high glucose. As to the method: Transmission electron microscopy. Untreated or treated MDSC cultures were incubated in high glucose in 8-well Permanox® Slides (Nunc, Naperville, Ill.). Freshly human isolated islets were fixed for 2 h with 2% glutaraldehyde in cacodylate buffer at room temperature and the further sample preparation was done as described in Zhu, X., et al., Proc. Natl. Acad. Sci. (USA), 99:10299-10304 (2002). Fifty randomly selected cells were photographed using the Philips CM-120 transmission electron microscope.

Another assay relates to insulin gene. As to the kind of experiment: Nested RT-PCR for insulin in MDSC cultures. The following applies: treated MDSC cultures; markedly increased in high glucose. How it is done: Nested RT-PCR. Nested RT-PCR was performed using the QIAGEN® OneStep RT-PCR kit (Qiagen, Valencia, Calif.), with the following: insulin forward-[…] (SEQ ID NO: 1) (PCR product size 324 bp), insulin forward nested-[…] (SEQ ID NO: 2) (PCR product size 266 bp), insulin reverse-[…] (SEQ ID NO: 3), glyceraldehyde phosphate dehydrogenase (GAPDH) forward-[…] (SEQ ID NO: 4) (PCR product size 541 bp), GAPDH forward nested-[…] (SEQ ID NO: 5) (PCR poduct size 282 bp), GAPDH reverse-[…] (SEQ ID NO: 6). Both PCR rounds were done using 40 cycles consisting of 30 seconds at 94° C., 1 minute at 58° C., and 1 minute at 72° C. First round PCR products were diluted 1:100 prior to the nested PCR. Final PCR products were electrophoresed through 1.7% agarose with ethidiumbromide and visualized by UV.

Assay [4] relates to MDSC cultures. As to the kind of experiment: Insulin release from MDSC cultures (insulin ELISA). The following applies: MDSC cultures treated 4-5 days. How it is done:
Insulin release. MDSC cultures incubated in 24-well tissue culture plates (Costar, Cambridge, Mass.) at 70-80% confluence were treated for 4-5 days with LPS or CD40Ab. Insulin secretion was assessed as previously described in Schuit, F., et al., J. Biol. Chem. 272:18572-18579 (1997), using an insulin ELISA kit (Linco Research, MO). When required, the untreated or treated cultures were also pre-incubated for 30 min with […] diazoxide, 10 mM tolbudamide, or […] IBMX.
A general note: In an ELISA, binding on a coated surface is turned into a signal by an enzyme label.

lipopolysaccharide [LPS]: the “macrophage differentiation of MDSCs” value in the assay with MDSC cultures [1] is “transformed the MDSCs into standard macrophages”. Further, the “insulin level by quantitative immunostaining” value in the assay with MDSC cultures [2] is reported as “about half the level of islet beta-cells”. Besides, the “granules seen by transmission electron microscopy” value in the assay on MDSC cultures [3] is given as “many halo granules of different sizes”. The insulin gene expression result with insulin gene is listed as “express the insulin gene”. For the same substance, the “insulin release by ELISA” value in the assay with MDSC cultures [4] is “glucose-dependent insulin release”.
